Source: patent publication US7582483B2, “Method of detecting viable cells” (Fuji Electric Holdings Co., Ltd., priority 2004, dated 2009)

Tested on: Escherichia coli
Test: detection of viable microbes in solid food (namul of spinach) with added Escherichia coli, CFDA and Phenol Red solutions at various pH
Type: cell-based
Settings: pH 5 of the CFDA solution and the Phenol Red solution
Method: In a second example, detection of live microbes was conducted using solid food (namul of spinach) to which Escherichia coli were added. The treatment to extract the microbes from the solid food into liquid was carried out referring to “A Guide to Food Sanitation Test, Volume on Microorganisms” (in Japanese; published by Japan Food Hygiene Association, 1990). Ten grams of the solid food (namul of spinach) to which Escherichia coli (about 10^7) was added was aliquoted into a stomacher bag. (The stomacher bag is made of flexible plastic film such as polyethylene and sterilized by radiation. There is a compartment inside the stomacher bag created by a partition of non-woven fabric or a plastic film with a pore size of about 0.28 mm diameter, and a liquid component can be extracted excluding relatively large solid bodies from the compartment. The aliquot of the solid food is supplied with 90 mL of sterile phosphate buffer saline and crushed and dispersed using a stomacher. A stomacher is an apparatus for extracting live microbes contained in food to liquid. In the stomacher, the stomacher bag containing food is placed between a fixed plate and a paddle and the food is crushed and dispersed by squeezing the bag containing food while moving the paddle back and forth. […] Using the liquid, viable microbes were detected in a procedure similar to that in Example 1. […]

## carboxyfluorescein diacetate [CFDA]
  staining of viable microbes with the fluorescent dye: the viable microbes were not stained with the fluorescent dye
